The values that follow come from patent publication US7547680B2, “Benzimidazole derivatives and medical uses thereof” (Kissei Pharmaceuticals, Co., Ltd., priority 2004, dated 2009).

Experiment [1] has as its target T1, human CNT2 (Homo sapiens, UniProt O43868, I160M/P22L/S45C).
T1 construct: expressed in transfected cells; host or cells: COS-7 cells (RIKEN CELL BANK RCB0539), transient lipofection of pCI-neo plasmid
T1 sequence (O43868 1-658 P22L/S45C/I160M): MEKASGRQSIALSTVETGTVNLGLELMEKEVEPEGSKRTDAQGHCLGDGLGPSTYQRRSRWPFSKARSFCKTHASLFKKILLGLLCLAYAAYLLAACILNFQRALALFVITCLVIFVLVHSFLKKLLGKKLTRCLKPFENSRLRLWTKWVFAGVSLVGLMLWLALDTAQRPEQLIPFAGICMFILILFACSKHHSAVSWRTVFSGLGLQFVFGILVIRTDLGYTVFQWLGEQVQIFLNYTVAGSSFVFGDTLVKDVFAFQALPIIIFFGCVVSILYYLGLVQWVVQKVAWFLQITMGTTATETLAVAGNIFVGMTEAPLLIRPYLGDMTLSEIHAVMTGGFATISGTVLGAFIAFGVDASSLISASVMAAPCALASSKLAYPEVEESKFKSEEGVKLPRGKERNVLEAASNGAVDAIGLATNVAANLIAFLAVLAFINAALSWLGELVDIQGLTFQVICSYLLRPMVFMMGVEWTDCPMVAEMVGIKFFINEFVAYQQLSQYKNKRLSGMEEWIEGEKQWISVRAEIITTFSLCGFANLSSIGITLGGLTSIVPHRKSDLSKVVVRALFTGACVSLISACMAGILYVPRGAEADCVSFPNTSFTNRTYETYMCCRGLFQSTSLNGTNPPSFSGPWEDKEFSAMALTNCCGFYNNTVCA
Kind of experiment: Inhibitory activity against uptake of adenosine through human CNT2. Format: cell-based. The note with it: COS-7 cells transiently expressing human CNT2; adenosine 10 μM; NBMPR 10 μM; incubation 30 minutes at 37° C. As to the method:
Human CNT2 cDNA was obtained by PCR amplification of human kidney cDNA (CLONTECH). PCR reaction solution contained 1 μL cDNA, 2 units Platinum taq DNA polymerase high fidelity (Invitrogen), 1 μM primers (Forward: 5′-AGGAGCCAGAGGGAATCAAT-3′, Reverse: 5′-ACATCTTGGTGAGTGAGTTG-3′). Amplifications for 1 cycle at 94° C. for 2 minutes, 32 cycles at 94° C. for 30 seconds, 58° C. for 30 seconds and 68° C. for 3 minutes were performed and PCR products were ligated into PCR-II-TOPO vector (Invitrogen). PCR reaction was performed with primers containing restriction enzyme sites and the constructed plasmid as a template. PCR reaction solution contained 100 ng plasmid, 2 units Pyrobest DNA polymerase (Takara), 330 nM primers (Forward: 5′-CCGCTCGAGAGGAGCCAGAGGGAATCAAT-3′, Reverse: 5′-CGTCTAGAACATCTTGGTGAGTGAGTTG-3′). Amplifications for 1 cycle at 95° C. for 3 minutes, 15 cycles at 98° C. for 10 seconds, 60° C. for 30 seconds and 72° C. for 1 minute and 1 cycle at 72° C. for 7 minutes were performed, and the PCR products were ligated into PCI-neo mammalian expression vector (Promega). The amino acid sequence of cloned human CNT2 was substituted at P22L (codon, CCG to CTG), S45C (codon, AGC to TGC) and I160M (codon, ATA to ATG) compared to a reported amino acid sequence for human CNT2 (NCBI Accession No. AAC51930).
Expression plasmid of human CNT2 was transfected into COS-7 cells (RIKEN CELL BANK RCB0539) by lipofection method. LIPOFECTAMINE 2000 (Invitrogen) was used as a lipofection reagent. COS-7 cells were diluted in D-MEM (Invitrogen) containing 10% fetal calf serum (Sanko Junyaku) at 5×10^5/1 mL, and seeded into collagen-coated 96-well plates (IWAKI) at 100 μL/well and cultured at 37° C. for 2 hours with 5% CO2 condition. For each well, 0.6 μL of LIPOFECTAMINE 2000 (Invitrogen) was diluted in 25 μL of OPTI-MEM (Invitrogen), and incubated for 7 minutes at room temperature (hereinafter referred to as Lipo 2000-OPTI). For each well, 0.3 μg of plasmid was diluted in 25 μL of OPTI-MEM (Invitrogen), and the solution was added to the Lipo 2000-OPTI and mixed gently and incubated for 30 minutes at room temperature, and was transferred 50 μL for each well to culture medium. The cells were incubated at 37° C. with 5% CO2 condition for 2 days, and used for the uptake assays.
An Uptake buffer was prepared by addition of a mixture of non-radioisotope labeled (Sigma) and ^14C-labeled (Amersham Biosciences) adenosine at the final concentration of 10 μM into a buffer, pH 7.4, containing 140 mM sodium chloride, 2 mM potassium chloride, 1 mM calcium chloride, 1 mM magnesium chloride, 10 mM HEPES 2-[4-(2-hydroxyethyl)-1-piperazinyl]ethane sulfonic acid, 5 mM tris(hydroxymethyl)aminomethane and 5 mM glucose. For measurement of basal uptake, Basal uptake measurement buffer, which contained 140 mM choline chloride instead of sodium chloride was prepared. […]. After removing culture medium of human CNT2 transiently expressing cells, Pretreatment buffer (Basal uptake measurement buffer without adenosine and glucose) was added to wells at 200 μL/well and incubated at 37° C. for 10 minutes. After repeating the same step again, Pretreatment buffer was removed and Measurement buffers and Basal uptake measurement buffer were added at 75 μL/well and incubated at 37° C. After incubation for 30 minutes, Measurement buffers and Basal uptake measurement buffer were removed, and the cells were washed with Washing buffer (Basal uptake measurement buffer with non-radioisotope labeled adenosine at 10 μM) at 200 μL/well twice. The cells were solubilized with 0.2 mol/L sodium hydroxide at 75 μL/well, and the cell lysates were transferred into PicoPlates (Perkin Elmer). After mixing with 150 μL of MicroScint-40 (Perkin Elmer), radioactivity was measured by means of scintillation counter (Perkin Elmer). […]

Experiment [2] is described as follows: Effects of CNT2 inhibitors on plasma uric acid level (purine tolerance test in rats). The note with it: Male SD-IGS rats; oxonic acid 100 mg/kg s.c.; purine mix 50 mg/kg and test compound 10 mg/kg orally; blood after 1 hour; control group = 100%; Example 28 by HPLC, Examples 89 and 90 by phosphotungstic acid method. Format: in vivo. As to the method:
Male SD-IGS rats (5 weeks old) which were fasted overnight, were subcutaneously treated with oxonic acid (Aldrich; 100 mg/kg), and after 1 hour, purine mix (Adenosine:Inosine:Guanosine=1:1:1 (Adenosine (Sigma), Inosine (WAKO), Guanosine (ICN); 50 mg/kg) and test compounds (10 mg/kg) were orally administrated simultaneously. A control group was treated with oxonic acid and the purine mix, and a group administrated only oxonic acid represented endogenous plasma uric acid value. After 1 hour, blood was collected from the abdominal aorta under ether anesthesia, and the plasma was collected with Venoject II vacuum blood collecting tube (Terumo, VP-FH052). According to the method described in Journal of Chromatography B, Vol. 744 (2000), pp. 129-138, plasma uric acid level in a compound of Example 28 was measured by using HPLC method mentioned below. Plasma uric acid levels in compounds of Examples 89 and 90 were measured by phosphotungstic acid method. Uric acid-Test Wako (WAKO) was used as a measurement reagent. As there is no difference of uric acid values between the HPLC method and the phosphotungstic acid method, uric acid value can be measured by either of both methods (for example, see the above Management guideline, pp. 18-19). The difference between plasma uric acid value in each study group and endogenous plasma uric acid value was calculated on the basis of 100% in the control group.
Theophylline (10 μg) as an internal standard substance was added to 0.1 mL of plasma collected with the above method, and then the samples were deproteinized with 1 mL of methanol. After the samples were centrifuged, the methanol layers were evaporated to dryness under a stream of nitrogen. […] Plasma uric acid concentration was determined by HPLC method according to the condition described below. […]
• Column: Inertsil ODS-2 (4.6×250 mm) • Mobile phase • A solution: acetonitrile • B solution: 10 mM phosphate buffer (pH 3.0) • A linear gradient elution method: A solution 2% to A solution 22% (25 minutes) • Column temperature: 40° C. • Flow rate: 0.5 mL/minute • Detection absorbance: 284 nm

Experiment [3] concerns the target T2, ENT2 (Homo sapiens, UniProt Q14542).
T2 sequence (Q14542 1-456): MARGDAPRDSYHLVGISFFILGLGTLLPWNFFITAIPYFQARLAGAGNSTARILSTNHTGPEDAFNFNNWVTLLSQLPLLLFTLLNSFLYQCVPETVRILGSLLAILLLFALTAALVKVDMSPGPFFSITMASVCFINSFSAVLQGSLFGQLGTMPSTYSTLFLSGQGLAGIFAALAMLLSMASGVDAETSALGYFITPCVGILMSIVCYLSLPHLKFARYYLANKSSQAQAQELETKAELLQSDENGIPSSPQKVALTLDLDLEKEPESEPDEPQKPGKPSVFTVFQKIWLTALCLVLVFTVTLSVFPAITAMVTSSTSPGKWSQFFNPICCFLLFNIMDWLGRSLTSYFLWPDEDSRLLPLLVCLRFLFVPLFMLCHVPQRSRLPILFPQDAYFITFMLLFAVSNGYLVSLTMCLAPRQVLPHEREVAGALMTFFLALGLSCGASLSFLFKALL
The note with it: ENT2, high concentration of NBMPR; cited from earlier work.

A value given as a limit tells only on which side of the number the result lay.

As usually defined, the IC50 is the concentration at which inhibition is half-maximal. In experiment [1], `CCCCOc1ccc(CNc2nc3ccccc3n2[C@@H]2O[C@H](CO)[C@@H](O)[C@H]2O)cc1OCCCCO` [Example 37] came in with a half-maximal inhibitory concentration (IC50) of 0.213 µM.

`CCOc1ccc(CNc2nc3ccccc3n2[C@@H]2O[C@H](CO)[C@@H](O)[C@H]2O)cc1OCCCCO` [Example 34, 2-[4-Ethoxy-3-(4-hydroxybutoxy)benzylamino]-1-(β-D-ribofuranosyl)-1H-benzimidazole] had an IC50 in experiment [1] of 0.104 µM.

In the case of `CCCOc1ccc(CNc2nc3ccccc3n2[C@@H]2O[C@H](CO)[C@@H](O)[C@H]2O)cc1OCCCCO` [Example 36], it took 0.15 µM to reach half-maximal inhibition in experiment [1] (IC50).

The compound `NCCCOc1cc(CNc2nc3ccccc3n2[C@@H]2O[C@H](CO)[C@@H](O)[C@H]2O)ccc1-c1ccccc1` [Example 51, 2-[3-(3-Aminopropoxy)-4-phenylbenzylamino]-1-(β-D-ribofuranosyl)-1H-benzimidazole] had an IC50 in experiment [1] of 0.009 µM.

Turning to `NC(=O)C1CCN(CCCOc2cccc(CNc3nc4ccccc4n3[C@@H]3O[C@H](CO)[C@@H](O)[C@H]3O)c2)CC1` [Example 89, 2-{3-[3-(4-Carbamoylpiperidin-1-yl)propoxy]benzylamino}-1-(β-D-ribofuranosyl)-1H-benzimidazole], the IC50 in experiment [1] stood at 0.055 µM. Further, in experiment [2], the “Percentage of increment of plasma uric acid level (%)” value (“Percentage of increment … (%)” for short) was 24.9% (p < 0.01).

Turning to `OCCCCOc1cc(CNc2nc3ccccc3n2[C@@H]2O[C@H](CO)[C@@H](O)[C@H]2O)ccc1-c1ccccc1` [Example 28, 2-[3-(4-Hydroxybutoxy)-4-phenylbenzylamino]-1-(β-D-ribofuranosyl)-1H-benzimidazole], the 50% inhibitory concentration (IC50) in experiment [1] turned out to be 0.046 µM. Further, the “Percentage of increment … (%)” value in experiment [2] is recorded as 15.2% (p < 0.01).

Regarding `O=[N+]([O-])c1ccc(CSc2ncnc3c2ncn3C2OC(CO)C(O)C2O)cc1` (stereo not drawn) [NBMPR, nitrobenzylthioinosine], the half-inhibitory concentration (IC50) in experiment [3] is above 1 µM.

`C[N+](C)(CCO)CCCOc1cccc(CNc2nc3ccccc3n2[C@@H]2O[C@H](CO)[C@@H](O)[C@H]2O)c1` [Example 93] showed an IC50 in experiment [1] of 0.172 µM.

The compound `CN(C)CCCOc1cccc(CNc2nc3ccccc3n2[C@@H]2O[C@H](CO)[C@@H](O)[C@H]2O)c1` [Example 90] had a concentration for half-maximal inhibition (IC50) in experiment [1] of 0.184 µM. For the same compound, the “Percentage of increment … (%)” value in experiment [2] is on record as 45.6% (p < 0.05).
